From EP4644383A1 (Jiangsu Yahong Meditech Co., Ltd., priority 2022, dated 2024)
pIC50: −log10 of the molar value. Read-outs that look alike come from different tables or passages of the source.

Key:
Format in all cases: biochemical
FGFR1 = target: T1, FGFR1 (Homo sapiens, UniProt P11362); experiment: FGFR1 kinase activity inhibition assay (LanthaScreen TR-FRET); conditions: for IC50: FGFR1 kinase, TR-FRET, read-out: IC50 (nM) FGFR1
T1 construct: cytoplasmic domain [398-822 (terminal) amino acids]; purchased Carna 08-133
T1 sequence (P11362 398-822): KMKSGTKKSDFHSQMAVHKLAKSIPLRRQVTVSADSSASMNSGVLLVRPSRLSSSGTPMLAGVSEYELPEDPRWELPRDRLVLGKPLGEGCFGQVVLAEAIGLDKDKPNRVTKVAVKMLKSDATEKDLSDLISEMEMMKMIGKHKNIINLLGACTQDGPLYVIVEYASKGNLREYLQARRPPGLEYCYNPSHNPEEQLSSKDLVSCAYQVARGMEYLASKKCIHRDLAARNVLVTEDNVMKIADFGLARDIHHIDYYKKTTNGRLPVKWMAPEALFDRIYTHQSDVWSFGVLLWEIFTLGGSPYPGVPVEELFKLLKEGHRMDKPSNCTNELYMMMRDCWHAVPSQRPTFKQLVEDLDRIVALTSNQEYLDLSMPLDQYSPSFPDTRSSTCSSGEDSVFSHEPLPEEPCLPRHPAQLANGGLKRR
Method in brief: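 Emission ratio 520 nm/495 nm by TR-FRET after stopping reaction with 10 mM EDTA and 60 min incubation at 22°C. Inhibition normalized between no-enzyme (min) and DMSO (max) controls, then fitted to a four-parameter curve (Top, Bottom, HillSlope).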

FGFR4 = target: T2, FGFR4 (Homo sapiens, UniProt P22455); experiment: FGFR4 kinase activity inhibition assay (LanthaScreen TR-FRET); conditions: for IC50: FGFR4 kinase, TR-FRET, read-out: IC50 (nM) FGFR4
T2 construct: FGFR4's cytoplasmic domain [460-802 (terminal) amino acids]; purchased Carna 08-136
T2 sequence (P22455 460-802): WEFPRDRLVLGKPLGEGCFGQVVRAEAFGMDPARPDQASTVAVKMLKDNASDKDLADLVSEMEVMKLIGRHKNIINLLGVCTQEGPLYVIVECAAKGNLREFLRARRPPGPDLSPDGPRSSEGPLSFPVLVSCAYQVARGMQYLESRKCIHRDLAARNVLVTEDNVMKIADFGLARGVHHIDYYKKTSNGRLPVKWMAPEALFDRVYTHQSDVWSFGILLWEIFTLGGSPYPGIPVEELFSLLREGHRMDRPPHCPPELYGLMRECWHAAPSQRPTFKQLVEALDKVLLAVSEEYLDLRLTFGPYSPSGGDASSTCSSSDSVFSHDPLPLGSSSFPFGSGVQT
Method in brief: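 GST-tagged cytoplasmic domains (FGFR2 aa 399-821; FGFR4 aa 460-802) were preincubated 10 min at 23 °C with compound (top 1 µM, threefold dilutions). Then 28 nM fluorescein-poly GT and 28 µM ATP were added for 30 min at 23 °C in HEPES pH 7.5 buffer. Tb-PY20 TR-FRET 520/495 ratio gave % inhibition versus DMSO and no-enzyme controls.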

FGFR3 = target: T3, FGFR3 (Homo sapiens, UniProt P22607); experiment: FGFR3 kinase activity inhibition assay (LanthaScreen TR-FRET); conditions: for IC50: FGFR3 kinase, TR-FRET, read-out: IC50 (nM) FGFR3; for Selectivity (X) FGFR1/FGFR3: ratio of IC50 FGFR1/FGFR3, selectivity towards FGFR3; for Selectivity (X) FGFR2/FGFR3: ratio of IC50 FGFR2/FGFR3, selectivity towards FGFR3; for Selectivity (X) FGFR4/FGFR3: ratio of IC50 FGFR4/FGFR3, selectivity towards FGFR3
T3 construct: FGFR3's cytoplasmic domain [436-806 (terminal) amino acids]; purchased Carna 08-135
T3 sequence (P22607 436-806): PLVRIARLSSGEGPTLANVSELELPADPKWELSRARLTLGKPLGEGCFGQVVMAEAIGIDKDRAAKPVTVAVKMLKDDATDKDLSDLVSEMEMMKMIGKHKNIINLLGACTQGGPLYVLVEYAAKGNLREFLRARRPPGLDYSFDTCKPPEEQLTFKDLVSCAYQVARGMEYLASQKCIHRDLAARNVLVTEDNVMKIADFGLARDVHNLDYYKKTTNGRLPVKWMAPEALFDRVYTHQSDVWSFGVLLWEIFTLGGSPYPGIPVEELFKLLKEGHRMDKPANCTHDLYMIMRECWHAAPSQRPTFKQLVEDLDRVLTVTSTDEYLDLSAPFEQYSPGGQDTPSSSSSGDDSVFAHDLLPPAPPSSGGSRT
Method in brief: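 Read-out is TR-FRET, with the 520 nm/495 nm emission ratio normalised to DMSO (max) and enzyme-free (min) controls. Enzyme was the FGFR3 cytoplasmic domain, residues 436-806. EDTA (10 mM) stopped the reaction, followed by 60 min at 22 °C before reading.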

FGFR2 = target: T4, FGFR2 (Homo sapiens, UniProt P21802); experiment: FGFR2 kinase activity inhibition assay (LanthaScreen TR-FRET); conditions: for IC50: FGFR2 kinase, TR-FRET, read-out: IC50 (nM) FGFR2
T4 construct: FGFR2's cytoplasmic domain [399-821 (terminal) amino acids]; purchased Carna 08-134
T4 sequence (P21802 399-821): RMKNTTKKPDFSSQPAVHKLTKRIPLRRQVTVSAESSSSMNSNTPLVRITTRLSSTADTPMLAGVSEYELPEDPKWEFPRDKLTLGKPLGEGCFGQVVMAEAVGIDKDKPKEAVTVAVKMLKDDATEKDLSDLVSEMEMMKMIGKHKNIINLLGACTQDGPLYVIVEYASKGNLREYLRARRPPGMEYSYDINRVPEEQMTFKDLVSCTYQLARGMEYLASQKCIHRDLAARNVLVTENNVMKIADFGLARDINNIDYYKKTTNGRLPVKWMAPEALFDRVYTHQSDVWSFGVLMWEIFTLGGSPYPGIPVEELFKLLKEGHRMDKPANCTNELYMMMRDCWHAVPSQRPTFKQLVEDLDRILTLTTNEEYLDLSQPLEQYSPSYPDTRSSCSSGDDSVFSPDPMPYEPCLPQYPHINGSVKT
Method in brief: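 GST-fused FGFR2 cytoplasmic domain (aa 399-821) was run as in the FGFR1 protocol: preincubated 10 min at 23 °C with compound (3-fold series from 1 µM) in 50 mM HEPES pH 7.5, 10 mM MgCl2, 4 mM DTT, 1% DMSO. A 2× mix of 28 nM fluorescein-poly GT/28 µM ATP then reacted 30 min. Tb-PY20/EDTA quench preceded the TR-FRET 520/495 read.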

SMILES: [2H]C([2H])([2H])C(Oc1ccc2[nH]nc(-c3cnn(C)c3)c2c1)c1c(C)ccc2ncccc12 (stereo not shown) [Example 122, 6-methyl-5-(1-((3-(1-methyl-1H-pyrazol-4-yl)-1H-indazol-5-yl)oxy)ethyl-2,2,2-d3)quinoline]
- IC50 (FGFR1): 10 to 100 nM
- IC50 (FGFR4): 10 to 100 nM
- IC50 (FGFR3): < 1 nM
- Selectivity (X) FGFR1/FGFR3 (FGFR3): B (B represents 20 ≤ multiple X<50)
- Selectivity (X) FGFR2/FGFR3 (FGFR3): A (A represents 1 ≤ multiple X<20)
- Selectivity (X) FGFR4/FGFR3 (FGFR3): B (B represents 20 ≤ multiple X<50)
- IC50 (FGFR2): 1 to 10 nM

SMILES: CC(Oc1ccc2[nH]nc(-c3cnn(C)c3)c2c1)c1cc(F)cc2ncccc12 (stereo not shown) [Example 124, 7-fluoro-5-(1-((3-(1-methyl-1H-pyrazol-4-yl)-1H-indazol-5-yl)oxy)ethyl)qu inoline]
- IC50 (FGFR1): 10 to 100 nM
- IC50 (FGFR4): 10 to 100 nM
- IC50 (FGFR3): < 1 nM
- Selectivity (X) FGFR1/FGFR3 (FGFR3): B (B represents 20 ≤ multiple X<50)
- Selectivity (X) FGFR2/FGFR3 (FGFR3): A (A represents 1 ≤ multiple X<20)
- Selectivity (X) FGFR4/FGFR3 (FGFR3): B (B represents 20 ≤ multiple X<50)
- IC50 (FGFR2): 1 to 10 nM

SMILES: Cc1ccnc2cccc(C(C)Oc3ccc4[nH]nc(-c5cnn(C)c5)c4c3)c12 (stereo not shown) [Example 126, 4-methyl-5-(1-((3-(1-methyl-1H-pyrazol-4-yl)-1H-indazol-5-yl)oxy)ethyl)qu inoline]
- IC50 (FGFR1): 10 to 100 nM
- IC50 (FGFR4): > 100 nM
- IC50 (FGFR3): 1 to 10 nM
- Selectivity (X) FGFR1/FGFR3 (FGFR3): B (B represents 20 ≤ multiple X<50)
- Selectivity (X) FGFR2/FGFR3 (FGFR3): A (A represents 1 ≤ multiple X<20)
- Selectivity (X) FGFR4/FGFR3 (FGFR3): C (C represents 50 ≤ multiple X<100)
- IC50 (FGFR2): 1 to 10 nM

SMILES: CC(Oc1ccc2[nH]nc(-c3cnn(C)c3)c2c1)c1cccn2nccc12 (stereo not shown) [Example 132, 3-(1-methyl-1H-pyrazol-4-yl)-5-(1-(pyrazolo[1,5-a]pyridin-4-yl)ethoxy)-1H-indazole]
- IC50 (FGFR1): 10 to 100 nM
- IC50 (FGFR4): 10 to 100 nM
- IC50 (FGFR3): < 1 nM
- Selectivity (X) FGFR1/FGFR3 (FGFR3): B (B represents 20 ≤ multiple X<50)
- Selectivity (X) FGFR2/FGFR3 (FGFR3): A (A represents 1 ≤ multiple X<20)
- Selectivity (X) FGFR4/FGFR3 (FGFR3): B (B represents 20 ≤ multiple X<50)
- IC50 (FGFR2): 1 to 10 nM

SMILES: Cc1cc(C(C)Oc2ccc3[nH]nc(-c4cnn(C)c4)c3c2)c2cccnc2c1 (stereo not shown) [Example 133, 7-methyl-5-(1-((3-(1-methyl-1H-pyrazol-4-yl)-1H-indazol-5-yl)oxy)ethyl)qu inoline]
- IC50 (FGFR1): 10 to 100 nM
- IC50 (FGFR4): > 100 nM
- IC50 (FGFR3): < 1 nM
- Selectivity (X) FGFR1/FGFR3 (FGFR3): B (B represents 20 ≤ multiple X<50)
- Selectivity (X) FGFR2/FGFR3 (FGFR3): A (A represents 1 ≤ multiple X<20)
- Selectivity (X) FGFR4/FGFR3 (FGFR3): D (D represents 100 ≤ multiple X)
- IC50 (FGFR2): 1 to 10 nM

SMILES: CC(Oc1ccc2[nH]nc(-c3cnn(C)c3)c2c1)c1cc(Cl)cc2ncccc12 (stereo not shown) [Example 134, 7-chloro-5-(1-((3-(1-methyl-1H-pyrazol-4-yl)-1H-indazol-5-yl)oxy)ethyl)qu inoline]
- IC50 (FGFR1): > 100 nM
- IC50 (FGFR4): > 100 nM
- IC50 (FGFR3): 1 to 10 nM
- Selectivity (X) FGFR1/FGFR3 (FGFR3): C (C represents 50 ≤ multiple X<100)
- Selectivity (X) FGFR2/FGFR3 (FGFR3): A (A represents 1 ≤ multiple X<20)
- Selectivity (X) FGFR4/FGFR3 (FGFR3): D (D represents 100 ≤ multiple X)
- IC50 (FGFR2): 10 to 100 nM

SMILES: CC(Nc1ccc2[nH]nc(-c3cnn(C)c3)c2c1)c1cccc2nccnc12 (stereo not shown) [Example 135, 3-(1-methyl-1H-pyrazol-4-yl)-N-(1-(quinoxalin-5-yl)ethyl)-1H-indazole-5-amine]
- IC50 (FGFR1): 10 to 100 nM
- IC50 (FGFR4): 10 to 100 nM
- IC50 (FGFR3): 1 to 10 nM
- Selectivity (X) FGFR1/FGFR3 (FGFR3): B (B represents 20 ≤ multiple X<50)
- Selectivity (X) FGFR2/FGFR3 (FGFR3): A (A represents 1 ≤ multiple X<20)
- Selectivity (X) FGFR4/FGFR3 (FGFR3): B (B represents 20 ≤ multiple X<50)
- IC50 (FGFR2): 1 to 10 nM

SMILES: CCc1cc(C(C)Oc2ccc3[nH]nc(-c4cnn(C)c4)c3c2)c2nccnc2c1 (stereo not shown) [Example 138, 7-ethyl-5-(1-((3-(1-methyl-1H-pyrazol-4-yl)-1H-indazol-5-yl)oxy)ethyl)quinoxaline]
- IC50 (FGFR1): 10 to 100 nM
- IC50 (FGFR4): 10 to 100 nM
- IC50 (FGFR3): < 1 nM
- Selectivity (X) FGFR1/FGFR3 (FGFR3): C (C represents 50 ≤ multiple X<100)
- Selectivity (X) FGFR2/FGFR3 (FGFR3): A (A represents 1 ≤ multiple X<20)
- Selectivity (X) FGFR4/FGFR3 (FGFR3): C (C represents 50 ≤ multiple X<100)
- IC50 (FGFR2): 1 to 10 nM

SMILES: Cc1cc(C(C)Oc2ccc3[nH]nc(-c4cnn(C)c4)c3c2)c2nccnc2c1 (stereo not shown) [Example 140, 7-methyl-5-(1-((3-(1-methyl-1H-pyrazol-4-yl)-1H-indazol-5-yl)oxy)ethyl)qu inoxaline]
- IC50 (FGFR1): 1 to 10 nM
- IC50 (FGFR4): 10 to 100 nM
- IC50 (FGFR3): < 1 nM
- Selectivity (X) FGFR1/FGFR3 (FGFR3): A (A represents 1 ≤ multiple X<20)
- Selectivity (X) FGFR2/FGFR3 (FGFR3): A (A represents 1 ≤ multiple X<20)
- Selectivity (X) FGFR4/FGFR3 (FGFR3): B (B represents 20 ≤ multiple X<50)
- IC50 (FGFR2): 1 to 10 nM

SMILES: CC(Oc1ccc2[nH]nc(-c3cnn(C)c3)c2c1)c1cc(F)cc2nccnc12 (stereo not shown) [Example 142, 7-fluoro-5-(1-((3-(1-methyl-1H-pyrazol-4-yl)-1H-indazol-5-yl)oxy)ethyl)qu inoxaline]
- IC50 (FGFR1): 1 to 10 nM
- IC50 (FGFR4): 10 to 100 nM
- IC50 (FGFR3): < 1 nM
- Selectivity (X) FGFR1/FGFR3 (FGFR3): A (A represents 1 ≤ multiple X<20)
- Selectivity (X) FGFR2/FGFR3 (FGFR3): A (A represents 1 ≤ multiple X<20)
- Selectivity (X) FGFR4/FGFR3 (FGFR3): B (B represents 20 ≤ multiple X<50)
- IC50 (FGFR2): 1 to 10 nM

SMILES: Cc1ccn2nccc2c1C(C)Oc1ccc2[nH]nc(-c3cnn(C)c3)c2c1 (stereo not shown) [Example 155, 3-(1-methyl-1H-pyrazol-4-yl)-5-(1-(5-methylpyrazolo [1,5-a]pyridin-4-yl)ethoxy)-1H-indazole]
- IC50 (FGFR1): 10 to 100 nM
- IC50 (FGFR4): 10 to 100 nM
- IC50 (FGFR3): < 1 nM
- Selectivity (X) FGFR1/FGFR3 (FGFR3): B (B represents 20 ≤ multiple X<50)
- Selectivity (X) FGFR2/FGFR3 (FGFR3): A (A represents 1 ≤ multiple X<20)
- Selectivity (X) FGFR4/FGFR3 (FGFR3): B (B represents 20 ≤ multiple X<50)
- IC50 (FGFR2): 1 to 10 nM

SMILES: CC(Oc1ccc2[nH]nc(-c3cnn(C)c3)c2c1)c1c(CO)ccc2ncccc12 (stereo not shown) [Example 156, (5-(1-((3-(1-methyl-1H-pyrazol-4-yl)-1H-indazol-5-yl)oxy)ethyl)quinolin-6-yl)m ethano]
- pIC50 (FGFR1): 7.00 to 8.00
- pIC50 (FGFR4): 7.00 to 8.00
- pIC50 (FGFR3): 8.00 to 9.00
- Selectivity (X) FGFR1/FGFR3 (FGFR3): B (B represents 20 ≤ multiple X<50)
- Selectivity (X) FGFR2/FGFR3 (FGFR3): A (A represents 1 ≤ multiple X<20)
- Selectivity (X) FGFR4/FGFR3 (FGFR3): A (A represents 1 ≤ multiple X<20)
- pIC50 (FGFR2): 8.00 to 9.00

SMILES: CC(Oc1ccc2[nH]nc(-c3cnn(C)c3)c2c1)c1nccc2nccnc12 (stereo not shown) [Example 157, 5-(1-((3-(1-methyl-1H-pyrazol-4-yl)-1H-indazol-5-yl)oxy)ethyl)py ridino[3,4-b]pyrazine]
- IC50 (FGFR1): 10 to 100 nM
- IC50 (FGFR4): 10 to 100 nM
- IC50 (FGFR3): 1 to 10 nM
- Selectivity (X) FGFR1/FGFR3 (FGFR3): A (A represents 1 ≤ multiple X<20)
- Selectivity (X) FGFR2/FGFR3 (FGFR3): A (A represents 1 ≤ multiple X<20)
- Selectivity (X) FGFR4/FGFR3 (FGFR3): A (A represents 1 ≤ multiple X<20)
- IC50 (FGFR2): 1 to 10 nM
